From patent US10654816B2, “Compounds and compositions for treating conditions associated with NLRP activity” (NOVARTIS INFLAMMASOME RESEARCH, INC., priority 2017, dated 2020) come the findings set out here.

Where only a bound is given, the exact number is not on record here.

The first experiment concerns IL-1β production in PMA-differentiated THP-1 cells. Description: IL-1β production in PMA-differentiated THP-1 cells stimulated with gramicidin (hTHP-1 assay, HTRF readout; Procedures 1-3). Format: cell-based, human. The following applies: Homo sapiens, THP-1, hTHP-1 assay containing 2% fetal bovine serum; average; class symbols; read-out: hTHP-1 IC50 (Average IC50 of compounds in hTHP-1 assay). Summed up: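 PMA-differentiated (20 ng/ml, 16-18 h) THP-1 cells in RPMI with 2% FBS, 50,000 cells/well, preincubated 1 h with compound (final 0.0017-100 μM, 0.37% DMSO), then stimulated with 5 μM gramicidin for 2 h. IL-1β in cell-free supernatant measured by HTRF (620/668 nm).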
(In general: TR-FRET usually uses a lanthanide donor and a delayed reading to cut background.)
Broadly, the IC50 is the concentration at which inhibition is half-maximal. For `CC(C)c1cc(F)cc(C(C)C)c1NC(=O)N=S(N)(=O)c1cccc2c(N(C)C)cccc12` (stereo not drawn) [Example 431, 1-{amino[5-(dimethylamino)naphthalen-1-yl]oxo-λ^6-sulfanylidene}-3-[4-fluoro-2,6-bis(propan-2-yl)phenyl]urea], the IC50 was in the range of 5000 to 30000 nM.
`CC(C)(O)c1cc(F)c(S(N)(=O)=NC(=O)Nc2c3c(cc4c2CC4)CCC3)s1` (stereo not drawn) [Example 281, 3-fluoro-5-(2-hydroxypropan-2-yl)-N′-((2,4,5,6-tetrahydro-1H-cyclobuta[f]inden-3-yl)carbamoyl)thiophene-2-sulfonimidamide]: the IC50 was in the range of 8 to 40 nM.
As for `CC(C)c1cc(C#N)cc(C(C)C)c1NC(=O)N=S(N)(=O)c1sc(C(C)(C)O)cc1F` (stereo not drawn) [Example 65, N′-((4-cyano-2,6-diisopropylphenyl)carbaoyl)-3-fluoro-5-(2-hydroxypropan-2-yl)thiophene-2-sulfonimidamide], the IC50 is 40 to 200 nM.
As for `CC(C)c1cc(F)cc(C(C)C)c1NC(=O)N=S(N)(=O)c1ccc(S(C)(=O)=O)cc1` (stereo not drawn) [Example 42, N′-(4-fluoro-2,6-diisopropylphenylcarbamoyl)-4-(methylsulfonyl)benzenesulfonim idamide], the IC50 is 5000 to 30000 nM.
Regarding `CC(=O)N(C)Cc1cccc(S(N)(=O)=NC(=O)Nc2c3c(cc4c2CCC4)CCC3)c1` (single isomer, unassigned) [Example 368, (R) or (S)-N-(3-(N′-((1,2,3,5,6,7-hexahydro-s-indacen-4-yl)carbamoyl)sulfamid-imidoyl)benzyl)-N-methylacetamide], the IC50 lay within 1000 to 5000 nM.
Regarding `CC(C)(O)c1ccc(F)c(S(N)(=O)=NC(=O)Nc2c3c(c(F)c4c2CCC4)CCC3)c1` (stereo not drawn) [Example 55, 2-fluoro-N′-((8-fluoro-1,2,3,5,6,7-hexahydro-s-indacen-4-yl)carbamoyl)-5-(2-hydroxypropan-2-yl)benzenesulfonimidamide], the IC50 was in the range of 200 to 1000 nM.
`CC(C)c1cc(F)cc(C(C)C)c1NC(=O)N=S(N)(=O)c1cc(C(C)(C)O)cs1` (stereo not drawn) [Example 40, N′-(4-fluoro-2,6-diisopropylphenylcarbamoyl)-4-(2-hydroxypropan-2-yl)thiophene-2-sulfonimidamide]: the concentration for half-maximal inhibition (IC50) lay within 40 to 200 nM.
On the same count and under the same terms, as for `CC(C)c1cc(C#N)cc(C(C)C)c1NC(=O)N=S(N)(=O)c1cc(C(C)(C)O)cc(C(C)(C)O)c1` (single isomer, unassigned) [Example 198, N′-((4-cyano-2,6-diisopropylphenyl)carbamoyl)-3,5-bis-(2-hydroxypropan-2-yl)benzenesulfonimidamide], the figure is 5000 to 30000 nM; as for `Cc1sc(S(N)(=O)=NC(=O)Nc2c3c(cc4c2CCC4)CCC3)cc1C(C)(C)O` (stereo not drawn) [Example 12, N′-(1,2,3,5,6,7-hexahydro-s-indacen-4-ylcarbamoyl)-4-(2-hydroxypropan-2-yl)-5-methylthiophene-2-sulfonimidamide], 40 to 200 nM.
Regarding `Cc1oc(S(N)(=O)=NC(=O)Nc2c(C(C)C)cncc2C(C)C)cc1C(C)(C)O` (stereo not drawn) [Example 222, N′-((3,5-diisopropylpyridin-4-yl)carbamoyl)-4-(2-hydroxypropan-2-yl)-5-methylfuran-2-sulfonimidamide], the IC50 lay in the range of 200 to 1000 nM.
Same read-out and setting: as for `CC(C)Cc1ccc(S(N)(=O)=NC(=O)Nc2c3c(cc4c2CCC4)CCC3)cn1` (stereo not drawn) [Example 275, N′-(1,2,3,5,6,7-hexahydro-s-indacen-4-ylcarbamoyl)-6-isobutylpyridine-3-sulfonimidamide], the figure is 1000 to 5000 nM.
Same read-out and setting: as for `NCc1ccc(S(N)(=O)=NC(=O)Nc2c3c(cc4c2CCC4)CCC3)cc1` (single isomer, unassigned) [Example 411, (R) or (S)-4-(aminomethyl)-N′-((1,2,3,5,6,7-hexahydro-s-indacen-4-yl)carbamoyl)benzene-sulfonimidamide], the figure is 1000 to 5000 nM; as for `CC(=O)N(C)Cc1ccc(S(N)(=O)=NC(=O)Nc2c3c(cc4c2CCC4)CCC3)cc1` (stereo not drawn) [Example 268, N-(4-(N′-(1,2,3,5,6,7-hexahydro-s-indacen-4-ylcarbamoyl)sulfamimidoyl)benzyl)-N-methylacetamide], 1000 to 5000 nM.
Consider `Cc1nc(C(C)(C)O)ccc1S(N)(=O)=NC(=O)Nc1c2c(cc3c1CCC3)CCC2` (stereo not drawn) [Example 264, N′-((1,2,3,5,6,7-hexahydro-s-indacen-4-yl)carbamoyl)-6-(2-hydroxypropan-2-yl)-2-methylpyridine-3-sulfonimidamide], for which the IC50 is 1000 to 5000 nM.
`CN(C)Cc1ccc(S(N)(=O)=NC(=O)Nc2c3c(cc4c2CCC4)CCC3)cn1` (stereo not drawn) [Example 276, 6-((Dimethylamino)methyl)-N′-(1,2,3,5,6,7-hexahydro-s-indacen-4-ylcarbamoyl)pyridine-3-sulfonimidamide]: the IC50 lay in the range of 200 to 1000 nM.
On to `CC(C)c1cc(F)cc(C(C)C)c1NC(=O)N=S(N)(=O)c1ccc(C(C)(C)O)cc1` (single isomer, unassigned) [Example 83, (S)- or (R)-N′-(4-fluoro-2,6-diisopropylphenylcarbamoyl)-4-(2-hydroxypropan-2-yl)benzenesulfonimidamide], for which the IC50 lay within 1000 to 5000 nM.
Still for that read-out and setting: as for `CC(C)(O)c1csc(S(N)(=O)=NC(=O)Nc2c3c(cc4c2CCC4)CCC3)n1` (stereo not drawn) [Example 77, N′-(1,2,3,5,6,7-hexahydro-s-indacen-4-ylcarbamoyl)-4-(2-hydroxypropan-2-yl)thiazole-2-sulfonimidamide], the figure is […].
As for `CC(C)c1cc(F)cc(C(C)C)c1NC(=O)N=S(N)(=O)c1ncc(C(C)(C)O)s1` (stereo not drawn) [Example 39, N′-(4-fluoro-2,6-diisopropylphenylcarbamoyl)-5-(2-hydroxypropan-2-yl)thiazole-2-sulfonimidamide], the IC50 was 200 to 1000 nM.
Still for that read-out and setting: next, `CC(C)(O)c1ncc(S(N)(=O)=NC(=O)Nc2c3c(cc4c2CCC4O)CCC3)s1` (stereo not drawn) [Example 230]: 1000 to 5000 nM; `CC(C)(O)c1ncc(S(N)(=O)=NC(=O)Nc2c3c(cc4c2CCC4O)CCC3)s1` (single isomer, unassigned) [Example 337, (R, R) or (R, S)-N′-((l-hydroxy-1,2,3,5,6,7-hexahydro-s-indacen-4-yl)carbamoyl)-2-(2-hydroxypropan-2-yl)thiazole-5-sulfonimidamide]: 1000 to 5000 nM; `CC(C)Cc1ccc(S(N)(=O)=NC(=O)Nc2c3c(cc4c2CCC4)CCC3)cn1` (single isomer, unassigned) [Example 416, (S) or (R)-N′-((1,2,3,5,6,7-hexahydro-s-indacen-4-yl)carbamoyl)-6-isobutylpyridine-3-sulfonimidamide]: 200 to 1000 nM.

The experiment is the same for the next values; noted with them: Homo sapiens, THP-1, hTHP-1 assay containing 2% fetal bovine serum; average; given as bound; read-out: hTHP-1 IC50 (Average IC50 of compounds in hTHP-1 assay).
On to `Cc1cc(C(C)(C)O)sc1S(N)(=O)=NC(=O)Nc1c(C(C)C)cc(OC(F)F)cc1C(C)C` (single isomer, unassigned) [Example 110, (R)- or (S)-N′-(4-(difluoromethoxy)-2,6-diisopropylphenylcarbamoyl)-5-(2-hydroxypropan-2-yl)-3-methylthiophene-2-sulfonimidamide], for which the IC50 is more than 30000 nM.
The same measure, in the same setting: next, `CC(C)c1cc(C#N)cc(C(C)C)c1NC(=O)N=S(N)(=O)c1ccc(C(C)(C)O)c(CO)c1` (single isomer, unassigned) [Example 189, (R)- or (S)-N′-((4-cyano-2,6-diisopropylphoxyproyl)-3-(hydroxymethyl)-4-(2-hydroxypropan-2-yl)benzenesulfonimidamide]: more than 30000 nM; `CCc1ccc2cn(C)nc2c1NC(=O)N=S(N)(=O)c1ncc(C(C)(C)O)s1` (stereo not drawn) [Example 256, N′-((6-ethyl-2-methyl-2H-indazol-7-yl)carbamoyl)-5-(2-hydroxypropan-2-yl)thiazole-2-sulfonimidamide]: more than 30000 nM.
With `CC(C)c1cc(C#N)cc(C(C)C)c1NC(=O)N=S(N)(=O)c1cc(C(C)(C)O)cc(C(C)(C)O)c1` (single isomer, unassigned) [Example 199, N′-((4-cyano-2,6-diisopropylphenyl)carbamoyl)-3,5-bis-(2-hydroxypropan-2-yl)benzenesulfonimidamide], the IC50 is more than 30000 nM.
Same read-out and setting: as for `CCc1ccc2cnn(C)c2c1NC(=O)N=S(N)(=O)c1ncc(C(C)(C)O)s1` (single isomer, unassigned) [Example 327, (S) or (R)-N′-((6-ethyl-1-methyl-1H-indazol-7-yl)carbamoyl)-5-(2-hydroxypropan-2-yl)thiazole-2-sulfonimidamide], the figure is more than 30000 nM; as for `COCCN(C)Cc1ccc(S(N)(=O)=NC(=O)Nc2c3c(cc4c2CCC4)CCC3)cc1` (single isomer, unassigned) [Example 389, (S) or (R)-N′-((1,2,3,5,6,7-hexahydro-s-indacen-4-yl)carbamoyl)-4-(((2-methoxyethyl)(meth-yl)amino)methyl)benzene-sulfonimidamide], more than 30000 nM.
Still for that read-out and setting: as for `CC(C)c1cc(-c2ccccc2CO)cc(C(C)C)c1NC(=O)N=S(N)(=O)c1ccc(CN(C)C)cc1` (stereo not drawn) [Compound 249], the figure is more than 30000 nM.

Still in this experiment, the particulars now being: Homo sapiens, THP-1, hTHP-1 assay containing 2% fetal bovine serum; average; numeric bound printed without unit; read-out: hTHP-1 IC50 (Average IC50 of compounds in hTHP-1 assay).
As for `CCc1ccc2cn[nH]c2c1NC(=O)N=S(N)(=O)c1cnc(C(C)(C)O)s1` (single isomer, unassigned) [Example 325, (S) or (R)-N′-((6-ethyl-1H-indazol-7-yl)carbamoyl)-2-(2-hydroxypropan-2-yl)thiazole-5-sulfonimidamide], the IC50 was more than 28400 nM.
On the same count and under the same terms, as for `CC(C)c1cc(OC(F)F)cc(C2CC2)c1NC(=O)N=S(N)(=O)c1ccc(C(C)(C)O)cc1F` (single isomer, unassigned) [Example 167, (R)- or (S)-N′-((2-cyclopropyl-4-(difluoromethoxy)-6-isopropylphenyl)carbamoyl)-2-fluoro-4-(2-hydroxypropan-2-yl)benzenesulfonimidamide], the figure is more than 11200 nM.
